# Data reported in EP1152011A1, “PEPTIDES INHIBITING VASCULAR ENDOTHELIAL CELL MIGRATION” (KYOWA HAKKO KOGYO CO., LTD., priority 1999, dated 2000).
# Residues, ends and D or L forms follow the SMILES beside them.
# Test system: Swine aorta endothelial cells
# Experiment: Measurement of activity inhibiting swine vascular endothelial cell migration
# Type: cell-based
# Settings: test compound at 10 µmol/L; 6 hours pre-culture, cells scraped off with razor blade, then 24 hours culture; 0.1% bovine serum albumin-containing Dulbecco's modified Eagle medium; value ± SD
# Excerpt: Measurement of activity inhibiting swine vascular endothelial cell migration: Swine aorta endothelial cells (5th to 7th generations) were suspended in the 10% fetus calf serum-containing Dulbecco's modified Eagle medium and inoculated at a cell density of 32,000 cells/cm^2 in a 6-well plate, for culturing until the cells formed a single layer over the whole bottom of the culture dish. Subsequently, the culture broth was exchanged to the 0.1% bovine serum albumin-containing Dulbecco's modified Eagle medium containing a test compound at a concentration of 10 µmol/L, followed by culturing for 6 hours. Then, a part of the cells on the bottom of the culture dish was scraped off using a razor blade. Subsequently, the culture broth was exchanged to the 0.1% bovine serum albumin-containing Dulbecco's modified Eagle medium containing a test compound in a concentration of 10 µmol/L, followed by culturing for 24 hours. After immobilizing the cells, the number of the cells which had migrated on the bottom portion of the culture dish, where a part of the cells had been scraped off, was counted. The inhibition ratio of cell migration was calculated by the following equation. Inhibition ratio of cell migration (%) = (1 - the number of cells which had migrated in the presence of the test compound/the number of cells which had migrated in the absence of the test compound) × 100 [formula]
row,SMILES,Inhibition ratio of cell migration (%) ± SD [%]
1,"CC[C@H](C)[C@H](NC(=O)[C@H](CO)NC(=O)[C@H](C)NC(=O)[C@@H]1CCCN1C(=O)[C@H](CO)NC(=O)[C@H](Cc1c[nH]c2ccccc12)NC(=O)[C@@H](NC(=O)[C@@H](NC(=O)[C@H](Cc1c[nH]c2ccccc12)NC(=O)[C@H](CCC(=O)O)NC(=O)[C@H](CO)NC(=O)[C@@H](N)CCSC)[C@@H](C)CC)[C@@H](C)O)C(=O)N[C@@H](CO)C(=O)N[C@@H](C)C(=O)NCC(N)=O [Compound 1, H-Met-Ser-Glu-Trp-Ile-Thr-Trp-Ser-Pro-Ala-Ser-Ile-Ser-Ala-Gly-NH2] (H-MSEWITWSPASISAG-NH2)",24.5±4.9
2,"CC(C)C[C@H](NC(=O)[C@H](CO)NC(=O)[C@@H](N)CC(C)C)C(=O)N[C@@H](Cc1c[nH]c2ccccc12)C(=O)N[C@@H](CO)C(=O)N[C@@H](CCC(=O)O)C(=O)N[C@@H](Cc1c[nH]c2ccccc12)C(=O)N[C@@H](CO)C(=O)N[C@@H](CC(=O)O)C(=O)N[C@@H](C)C(=O)N[C@@H](CO)C(=O)N[C@H](C(=O)N[C@H](C(=O)N[C@@H](C)C(=O)NCC(N)=O)[C@@H](C)O)C(C)C [Compound 2, H-Leu-Ser-Leu-Trp-Ser-Glu-Trp-Ser-Asp-Ala-Ser-Val-Thr-Ala-Gly-NH2] (H-LSLWSEWSDASVTAG-NH2)",41.5±2.1
3,"C[C@H](NC(=O)[C@H](C)NC(=O)[C@H](CO)NC(=O)[C@H](Cc1c[nH]c2ccccc12)NC(=O)[C@@H]1CCCN1C(=O)[C@H](CO)NC(=O)[C@H](Cc1c[nH]c2ccccc12)NC(=O)[C@H](CC(N)=O)NC(=O)[C@H](CO)NC(=O)[C@@H](N)Cc1ccc(O)cc1)C(=O)N[C@@H](CO)C(=O)N[C@@H](CO)C(=O)N[C@@H](CO)C(=O)N[C@H](C(=O)N[C@@H](C)C(=O)N[C@@H](CC(=O)O)C(N)=O)[C@@H](C)O [Compound 3, H-Tyr-Ser-Asn-Trp-Ser-Pro-Trp-Ser-Ala-Ala-Ser-Ser-Ser-Thr-Ala-Asp-NH2] (H-YSNWSPWSAASSSTAD-NH2)",12.3±10.0
4,"CSCC[C@H](N)C(=O)N[C@H](C(=O)N[C@@H](CCC(=O)O)C(=O)N[C@@H](Cc1c[nH]c2ccccc12)C(=O)NCC(=O)N[C@@H](CCC(=O)O)C(=O)N[C@@H](Cc1c[nH]c2ccccc12)C(=O)N[C@@H](CC(=O)O)C(=O)N[C@@H](CCC(=O)O)C(=O)N[C@@H](C)C(=O)N[C@@H](CO)C(=O)N[C@@H](C)C(=O)N[C@H](C(=O)N[C@@H](C)C(=O)NCC(N)=O)[C@@H](C)O)[C@@H](C)O [Compound 4, H-Met-Thr-Glu-Trp-Gly-Glu-Trp-Asp-Glu-Ala-Ser-Ala-Thr-Ala-Gly-NH2] (H-MTEWGEWDEASATAG-NH2)",7.4±13.2
5,"CC(C)C[C@H](N)C(=O)N[C@H](C(=O)N[C@@H](CCC(=O)O)C(=O)N[C@@H](Cc1c[nH]c2ccccc12)C(=O)N[C@@H](CO)C(=O)N[C@@H](CCC(N)=O)C(=O)N[C@@H](Cc1c[nH]c2ccccc12)C(=O)N[C@@H](CO)C(=O)N[C@@H](CCC(=O)O)C(=O)N[C@@H](C)C(=O)N[C@@H](CC(N)=O)C(=O)N[C@@H](CCCCN)C(=O)N[C@@H](CO)C(=O)N[C@@H](C)C(=O)NCC(N)=O)[C@@H](C)O [Compound 5, H-Leu-Thr-Glu-Trp-Ser-Gln-Trp-Ser-Glu-Ala-Asn-Lys-Ser-Ala-Gly-NH2] (H-LTEWSQWSEANKSAG-NH2)",10.8±6.0
6,"CSCC[C@H](N)C(=O)N[C@@H](CCCNC(=N)N)C(=O)N1CCC[C@H]1C(=O)N[C@@H](Cc1c[nH]c2ccccc12)C(=O)N[C@H](C(=O)N[C@@H](C)C(=O)N[C@@H](Cc1c[nH]c2ccccc12)C(=O)N[C@@H](CO)C(=O)N[C@@H](CCC(=O)O)C(=O)N[C@@H](C)C(=O)N[C@H](C(=O)N[C@@H](CCCCN)C(=O)N[C@@H](CC(C)C)C(=O)N[C@@H](C)C(=O)NCC(N)=O)[C@@H](C)O)[C@@H](C)O [Compound 6, H-Met-Arg-Pro-Trp-Thr-Ala-Trp-Ser-Glu-Ala-Thr-Lys-Leu-Ala-Gly-NH2] (H-MRPWTAWSEATKLAG-NH2)",5.7±8.0
7,"CSCC[C@H](NC(=O)[C@H](CCCNC(=N)N)NC(=O)[C@H](CCCCN)NC(=O)CNC(=O)[C@H](CCCCN)NC(=O)[C@@H](N)CC(=O)O)C(=O)N[C@@H](CCCNC(=N)N)C(=O)N[C@@H](CCC(N)=O)C(=O)N[C@@H](CCCNC(=N)N)C(=O)N[C@@H](CCSC)C(=O)N[C@@H](CC(C)C)C(=O)N[C@@H](CCCCN)C(=O)N[C@@H](C)C(=O)N[C@@H](CCC(N)=O)C(=O)N[C@@H](CC(C)C)C(N)=O [Compound 7, H-Asp-Lys-Gly-Lys-Arg-Met-Arg-Gln-Arg-Met-Leu-Lys-Ala-Gln-Leu-NH2] (H-DKGKRMRQRMLKAQL-NH2)",9.3±1.6
8,"CC[C@H](C)[C@H](NC(=O)[C@H](CCSC)NC(=O)[C@H](CCCNC(=N)N)NC(=O)[C@H](Cc1c[nH]cn1)NC(=O)[C@H](CCCNC(=N)N)NC(=O)[C@H](CCCCN)NC(=O)[C@H](CCCCN)NC(=O)[C@@H](N)CCSC)C(=O)N[C@@H](CCCCN)C(=O)N[C@@H](CCSC)C(=O)N[C@@H](CC(N)=O)C(=O)N1CCC[C@H]1C(=O)N[C@@H](C)C(=O)N[C@@H](CC(=O)O)C(=O)NCC(N)=O [Compound 8, H-Met-Lys-Lys-Arg-His-Arg-Met-Ile-Lys-Met-Asn-Pro-Ala-Asp-Gly-NH2] (H-MKKRHRMIKMNPADG-NH2)",7.2±1.2
9,"CC[C@H](C)[C@H](NC(=O)[C@H](CCSC)NC(=O)[C@H](CCCNC(=N)N)NC(=O)[C@@H](NC(=O)[C@H](CCCNC(=N)N)NC(=O)[C@@H](NC(=O)[C@@H](NC(=O)[C@H](Cc1c[nH]cn1)NC(=O)CNC(=O)[C@H](CCCCN)NC(=O)CN)C(C)C)[C@@H](C)CC)[C@@H](C)O)C(=O)N[C@@H](CCC(N)=O)C(=O)N[C@@H](CCSC)C(=O)N[C@@H](CCC(=O)O)C(N)=O [Compound 9, H-Gly-Lys-Gly-His-Val-Ile-Arg-Thr-Arg-Met-Ile-Gln-Met-Glu-NH2] (H-GKGHVIRTRMIQME-NH2)",3.9±1.6
10,"CC[C@H](C)[C@H](NC(=O)[C@H](CCCNC(=N)N)NC(=O)[C@H](C)NC(=O)[C@H](CCCCN)NC(=O)[C@H](CCCCN)NC(=O)[C@H](CCCNC(=N)N)NC(=O)[C@H](CCC(N)=O)NC(=O)[C@@H](NC(=O)[C@@H](NC(=O)[C@H](CCC(=O)O)NC(=O)[C@@H]1CCCN1C(=O)[C@H](C)NC(=O)[C@@H]1CCCN1)[C@@H](C)O)C(C)C)C(=O)N[C@@H](CCCNC(=N)N)C(=O)N[C@@H](CCCCN)C(N)=O [Compound 10, H-Pro-Ala-Pro-Glu-Thr-Val-Gln-Arg-Lys-Lys-Ala-Arg-Ile-Arg-Lys-NH2] (H-PAPETVQRKKARIRK-NH2)",20.6±1.9
11,"CSCC[C@H](NC(=O)[C@H](Cc1ccc(O)cc1)NC(=O)[C@@H](N)CCCNC(=N)N)C(=O)N[C@H](C(=O)N[C@H](C(=O)N[C@@H](CCCCN)C(=O)N[C@@H](CCCCN)C(=O)N[C@@H](CCCNC(=N)N)C(=O)N[C@@H](Cc1ccccc1)C(=O)N[C@@H](CCCCN)C(=O)N[C@@H](CO)C(=O)N[C@@H](CO)C(=O)N[C@@H](CCC(N)=O)C(=O)N[C@@H](Cc1ccccc1)C(=O)N[C@H](C(N)=O)[C@@H](C)O)C(C)C)[C@@H](C)O [Compound 11, H-Arg-Tyr-Met-Thr-Val-Lys-Lys-Arg-Phe-Lys-Ser-Ser-Gln-Phe-Thr-NH2] (H-RYMTVKKRFKSSQFT-NH2)",12.2±10.7
